Experimental data: patent publication US8546414B2, “Ion channel modulators and methods of use” (Vertex Pharmaceuticals Incorporated, priority 2004, dated 2013)
pIC50: −log10 of the molar value.

Key:
Format in all cases: cell-based
NaV1.3 = molecular target: T1, NaV1.3 (Homo sapiens, UniProt Q9NY46); assay: VIPR optical membrane potential assay with electrical stimulation, NaV1.3; conditions: Table 9, NaV 1.3 receptors
T1 construct: expressed in transfected cells; host or cells: HEK293
Outline: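 HEK293 cells stably expressing NaV1.3, stained with CC2-DMPE (10 μM final) then DiSBAC2(3) with ABSC1, 30 min each at RT; compounds added with oxonol. Electrical stimulation for 3 s; 460/580 nm background-subtracted emission ratio Rf/Ri, normalised to tetracaine (positive) and untreated (negative) controls.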

NaV1.8 = NaV1.8 (Homo sapiens, UniProt Q9Y5Y9); assay: VIPR optical membrane potential assay, NaV1.8 (other subtypes in an analogous mode); conditions: Table 9, NaV 1.8 receptors
Outline: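 Cells expressing the NaV subtype stained with coumarin and DiSBAC2(3) membrane-potential dyes, then incubated with test compound for 20-30 minutes. Depolarization evoked by sodium addback and read optically on VIPR; block measured as reduced membrane-potential response, with tetracaine as positive control.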

CaV2.2 = molecular target: T2, CaV2.2 (Homo sapiens, UniProt Q00975); assay: VIPR optical membrane potential assay with electrical stimulation, CaV2.2; conditions: Table 9, CaV 2.2 receptors
T2 construct: expressed in transfected cells; host or cells: HEK293
Outline: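 HEK293 cells stably expressing CaV2.2 stained with CC2-DMPE/DiSBAC2(3) voltage-sensitive dyes (10 μM final CC2-DMPE, 30 min, RT), then compound added and cells electrically stimulated for 3-5 s. Read-out: background-subtracted 460/580 nm emission ratio; response R=Rf/Ri (post- vs pre-stimulus ratio); antagonism seen as reduced response.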

NaV1.8, sequence (Q9Y5Y9 whole entry): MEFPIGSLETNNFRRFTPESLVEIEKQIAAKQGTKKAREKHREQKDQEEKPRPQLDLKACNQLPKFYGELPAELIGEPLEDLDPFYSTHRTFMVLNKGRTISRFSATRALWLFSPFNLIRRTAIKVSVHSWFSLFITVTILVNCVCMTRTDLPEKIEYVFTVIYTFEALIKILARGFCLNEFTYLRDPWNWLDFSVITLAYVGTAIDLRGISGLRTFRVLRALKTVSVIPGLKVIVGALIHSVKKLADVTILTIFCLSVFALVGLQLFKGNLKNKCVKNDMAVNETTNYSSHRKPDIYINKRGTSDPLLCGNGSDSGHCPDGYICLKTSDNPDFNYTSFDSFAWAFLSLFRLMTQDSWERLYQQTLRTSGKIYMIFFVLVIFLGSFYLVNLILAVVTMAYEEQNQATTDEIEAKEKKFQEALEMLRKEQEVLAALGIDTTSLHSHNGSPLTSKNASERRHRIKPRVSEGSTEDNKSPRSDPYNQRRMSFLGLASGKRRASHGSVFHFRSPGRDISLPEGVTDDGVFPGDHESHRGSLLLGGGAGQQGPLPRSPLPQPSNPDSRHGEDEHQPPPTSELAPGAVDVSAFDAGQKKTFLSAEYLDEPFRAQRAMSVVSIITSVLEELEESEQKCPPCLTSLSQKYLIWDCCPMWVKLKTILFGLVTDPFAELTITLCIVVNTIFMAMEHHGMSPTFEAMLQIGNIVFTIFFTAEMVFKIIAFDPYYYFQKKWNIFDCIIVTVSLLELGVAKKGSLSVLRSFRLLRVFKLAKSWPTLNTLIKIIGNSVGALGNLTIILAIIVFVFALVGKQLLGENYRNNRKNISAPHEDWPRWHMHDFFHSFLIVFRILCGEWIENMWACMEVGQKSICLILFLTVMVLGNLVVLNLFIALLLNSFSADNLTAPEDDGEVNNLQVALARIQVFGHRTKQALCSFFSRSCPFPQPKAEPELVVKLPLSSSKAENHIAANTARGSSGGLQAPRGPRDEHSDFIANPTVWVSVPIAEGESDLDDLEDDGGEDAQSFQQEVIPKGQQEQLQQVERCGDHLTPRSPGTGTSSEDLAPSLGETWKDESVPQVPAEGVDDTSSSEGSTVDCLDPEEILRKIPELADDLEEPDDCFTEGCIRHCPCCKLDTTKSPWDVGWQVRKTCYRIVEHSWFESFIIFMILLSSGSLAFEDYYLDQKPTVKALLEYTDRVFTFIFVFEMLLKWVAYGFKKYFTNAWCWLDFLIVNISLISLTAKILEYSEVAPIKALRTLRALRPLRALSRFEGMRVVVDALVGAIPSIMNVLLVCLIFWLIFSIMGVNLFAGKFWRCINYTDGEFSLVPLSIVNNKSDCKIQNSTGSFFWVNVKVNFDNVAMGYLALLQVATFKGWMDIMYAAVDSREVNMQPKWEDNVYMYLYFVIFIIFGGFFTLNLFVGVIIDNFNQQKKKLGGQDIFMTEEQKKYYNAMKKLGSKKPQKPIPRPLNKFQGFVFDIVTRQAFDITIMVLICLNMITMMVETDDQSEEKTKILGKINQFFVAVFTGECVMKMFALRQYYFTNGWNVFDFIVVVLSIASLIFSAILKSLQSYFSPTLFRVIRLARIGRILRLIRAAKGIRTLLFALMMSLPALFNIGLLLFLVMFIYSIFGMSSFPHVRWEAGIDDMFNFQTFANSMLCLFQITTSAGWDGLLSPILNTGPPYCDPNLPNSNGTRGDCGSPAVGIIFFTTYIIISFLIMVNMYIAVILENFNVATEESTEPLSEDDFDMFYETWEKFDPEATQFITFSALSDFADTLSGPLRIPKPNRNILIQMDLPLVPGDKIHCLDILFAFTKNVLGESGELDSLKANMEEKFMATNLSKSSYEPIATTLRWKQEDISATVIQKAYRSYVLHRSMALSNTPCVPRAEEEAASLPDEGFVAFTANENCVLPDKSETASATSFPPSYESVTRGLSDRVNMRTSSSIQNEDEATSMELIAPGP
T1 sequence (Q9NY46 whole entry): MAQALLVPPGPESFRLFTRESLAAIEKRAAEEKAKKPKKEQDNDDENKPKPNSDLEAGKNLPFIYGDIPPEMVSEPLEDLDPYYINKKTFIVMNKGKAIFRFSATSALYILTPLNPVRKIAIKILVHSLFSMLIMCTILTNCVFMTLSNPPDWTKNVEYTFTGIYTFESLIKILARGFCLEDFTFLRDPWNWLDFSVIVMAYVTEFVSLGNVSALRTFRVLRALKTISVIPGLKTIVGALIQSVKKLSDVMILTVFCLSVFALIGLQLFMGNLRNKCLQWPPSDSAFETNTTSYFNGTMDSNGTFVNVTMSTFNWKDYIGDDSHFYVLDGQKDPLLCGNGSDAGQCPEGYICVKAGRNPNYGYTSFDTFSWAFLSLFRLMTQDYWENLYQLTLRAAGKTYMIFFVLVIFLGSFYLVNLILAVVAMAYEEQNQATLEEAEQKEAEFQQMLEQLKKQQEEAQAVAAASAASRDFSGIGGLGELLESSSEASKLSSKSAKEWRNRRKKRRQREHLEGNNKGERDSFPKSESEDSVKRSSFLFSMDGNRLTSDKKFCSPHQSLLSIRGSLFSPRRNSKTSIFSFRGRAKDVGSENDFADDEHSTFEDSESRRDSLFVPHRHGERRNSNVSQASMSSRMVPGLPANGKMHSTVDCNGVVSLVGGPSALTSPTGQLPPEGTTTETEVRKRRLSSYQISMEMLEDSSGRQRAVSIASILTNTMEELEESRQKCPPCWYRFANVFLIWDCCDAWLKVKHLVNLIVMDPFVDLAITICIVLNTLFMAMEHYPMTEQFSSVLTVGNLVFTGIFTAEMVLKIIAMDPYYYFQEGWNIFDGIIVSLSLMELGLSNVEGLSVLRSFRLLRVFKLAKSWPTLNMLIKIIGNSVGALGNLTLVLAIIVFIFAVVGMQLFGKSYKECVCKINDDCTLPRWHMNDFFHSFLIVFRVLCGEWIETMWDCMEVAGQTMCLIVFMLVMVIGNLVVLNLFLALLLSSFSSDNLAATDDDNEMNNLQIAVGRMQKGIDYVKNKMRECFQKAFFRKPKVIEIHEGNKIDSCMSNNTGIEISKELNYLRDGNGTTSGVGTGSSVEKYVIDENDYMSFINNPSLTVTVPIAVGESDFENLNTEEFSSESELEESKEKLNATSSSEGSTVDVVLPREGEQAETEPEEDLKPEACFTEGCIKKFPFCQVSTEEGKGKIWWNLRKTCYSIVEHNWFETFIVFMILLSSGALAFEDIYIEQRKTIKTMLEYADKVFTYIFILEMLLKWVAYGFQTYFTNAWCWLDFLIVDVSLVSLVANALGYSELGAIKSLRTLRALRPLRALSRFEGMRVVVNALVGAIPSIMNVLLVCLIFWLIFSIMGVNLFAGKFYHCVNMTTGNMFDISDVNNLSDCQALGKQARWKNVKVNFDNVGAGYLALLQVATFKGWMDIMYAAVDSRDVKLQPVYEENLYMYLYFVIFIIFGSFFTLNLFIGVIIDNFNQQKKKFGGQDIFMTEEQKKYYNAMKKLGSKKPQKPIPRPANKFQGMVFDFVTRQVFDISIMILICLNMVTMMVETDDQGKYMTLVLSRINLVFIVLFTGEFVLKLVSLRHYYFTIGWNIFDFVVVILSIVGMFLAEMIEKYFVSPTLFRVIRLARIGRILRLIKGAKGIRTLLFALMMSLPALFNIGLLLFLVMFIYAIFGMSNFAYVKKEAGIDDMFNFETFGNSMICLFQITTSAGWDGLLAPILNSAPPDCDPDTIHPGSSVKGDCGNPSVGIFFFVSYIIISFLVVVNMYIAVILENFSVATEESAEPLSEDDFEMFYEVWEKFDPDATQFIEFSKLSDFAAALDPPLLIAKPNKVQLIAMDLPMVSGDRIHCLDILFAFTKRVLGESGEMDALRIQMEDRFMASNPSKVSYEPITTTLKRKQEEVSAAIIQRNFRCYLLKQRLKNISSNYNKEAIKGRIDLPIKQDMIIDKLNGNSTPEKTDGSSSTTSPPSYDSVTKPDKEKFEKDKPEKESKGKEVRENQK

SMILES | pIC50 (NaV1.3) | pIC50 (NaV1.8) | pIC50 (CaV2.2)
CC(C)N(C(=O)c1cnc(N2CCCCC2)nc1-c1ccccc1F)c1cccc2ccccc12 [compound 112] | 5.00 to 5.70 | < 5.00 | < 5.00
CC(C)N(C(=O)c1cnc(N2CCOCC2)nc1-c1ccccc1F)c1ccc2c(c1)OCO2 [compound 182] | < 5.00 | < 5.00 | 5.00 to 5.70
CC(C)(C)c1ccc(CN(C(=O)c2cnc(N3CCSCC3)nc2-c2ccccc2F)C2CC2)cc1 [compound 2] | < 5.00 | < 5.00 | 5.00 to 5.70
O=C(c1cnc(N2CCOCC2)nc1-c1ccccc1F)N1CC=C(c2ccc(F)cc2)CC1 [compound 71] | < 5.00 | < 5.00 | < 5.00
CC(C)N(Cc1ccccc1)C(=O)c1cnc(N2CCC(O)C2)nc1-c1ccccc1F (stereo not drawn) [compound 45] | < 5.00 | < 5.00 | < 5.00
CC(C)N(C(=O)c1cnc(N2CCCCC2)nc1-c1ccccc1F)c1cccc(C#N)c1 [compound 125] | < 5.00 | < 5.00 | 5.00 to 5.70
COc1cccc(N(C(=O)c2cnc(N3CCOCC3)nc2-c2ccccc2F)C(C)C)c1 [compound 160] | < 5.00 | < 5.00 | < 5.00
CC(=O)Nc1ccc(-c2nc(N3CCOCC3)ncc2C(=O)N(Cc2ccccc2)C(C)C)cc1 [compound 168] | < 5.00 | < 5.00 | < 5.00
CC(C)N(Cc1ccccc1)C(=O)c1cnc(Nc2ccc(F)cc2)nc1-c1ccccc1F [compound 181] | < 5.00 | < 5.00 | < 5.00
CC(C)N(Cc1ccc(C(C)(C)C)cc1)C(=O)c1cnc(N2CCCCC2)nc1-c1ccccc1F [compound 122] | < 5.00 | < 5.00 | 5.00 to 5.70

Further lines, results first:

pIC50 (NaV1.3) | pIC50 (NaV1.8) | pIC50 (CaV2.2) | SMILES
< 5.00 | < 5.00 | < 5.00 | O=C(c1cnc(N2CCSCC2)nc1-c1ccccc1F)N1Cc2ccccc2C1 [compound 206]
> 5.70 | > 5.70 | > 5.70 | COc1ccc(CN(C(=O)c2cnc(N3CCOCC3)nc2-c2ccccc2F)C2CC2)cc1 [compound 142]
5.00 to 5.70 | 5.00 to 5.70 | 5.00 to 5.70 | COc1ccc(CN(C(=O)c2cnc(N3CCSCC3)nc2-c2ccccc2F)C2CC2)cc1 [compound 164]
< 5.00 | < 5.00 | < 5.00 | O=C(c1cnc(N2CCOCC2)nc1-c1ccccc1F)N1CC=C(c2ccccc2)CC1 [compound 91]
< 5.00 | < 5.00 | < 5.00 | CCNc1ncc(C(=O)N(Cc2ccccc2)C(C)C)c(-c2ccccc2F)n1 [compound 11]
< 5.00 | < 5.00 | < 5.00 | COc1ccc(CN(C(=O)c2cnc(N3CCN(C)CC3)nc2-c2ccccc2F)C2CC2)cc1 [compound 193]
< 5.00 | < 5.00 | < 5.00 | CC(C)N(C(=O)c1cnc(N2CCCCC2)nc1-c1ccccc1F)C1CCSC1 (stereo not drawn) [compound 149]
5.00 to 5.70 | < 5.00 | 5.00 to 5.70 | CC(C)N(Cc1ccccc1)C(=O)c1cnc(N2Cc3ccccc3C2)nc1-c1ccccc1F [compound 130]
< 5.00 | < 5.00 | 5.00 to 5.70 | CC1CN(c2ncc(C(=O)N(Cc3ccccc3)C(C)C)c(-c3ccccc3F)n2)CC(C)O1 (stereo not drawn) [compound 69]
5.00 to 5.70 | < 5.00 | 5.00 to 5.70 | Cc1nc(N2CCCCC2)nc(-c2ccccc2F)c1C(=O)N(Cc1ccc(C(C)(C)C)cc1)C(C)C [compound 32]
5.00 to 5.70 | 5.00 to 5.70 | < 5.00 | COc1ccccc1C1CCN(C(=O)c2cnc(N3CCOCC3)nc2-c2ccccc2F)CC1 [compound 44]
5.00 to 5.70 | 5.00 to 5.70 | > 5.70 | CCCN(CC1CC1)c1ncc(C(=O)N(Cc2cccc(OC)c2)C(C)C)c(-c2ccccc2F)n1 [compound 4]
5.00 to 5.70 | < 5.00 | > 5.70 | COc1cccc(CN(C(=O)c2cnc(N3CCc4ccccc4C3)nc2-c2ccccc2F)C(C)C)c1 [compound 22]
